Results published in US20260357349A1, “METHODS OF IDENTIFYING AND TREATING CANCER” (Agency for Science, Technology and Research, priority 2022, published 2026).

Columns and labels:
[1] = system: NF-κB pathway (786-O cells); assay: RNA-seq after bortezomib, 786-O; format: cell-based, human
Method: (§1) Colony formation of parental (WT) or PBRM1 knockout (KO) 786-O cells expressing shRNA against non-targeting control (NC), RELA, or NFKB1 cultured with a) 10% or b) 2% serum. c) Gene expression changes of NF-κB target genes in 786-O cells treated with 0.006 μM bortezomib (BTZ) or 0.6 µM Bay 11-7085 for 24 hours (n=3 technical replicates). * p-value<0.05 (two-sided t-test). […] A positive log fold change refers to gain in bortezomib treatment over DMSO. g) Colony formation of 786-O isogenic cells and h) NCC432 isogenic cells treated with bortezomib for a week. Tumor formation of isogenic 786-O cells (i) and NCC432 cells (j) treated with PBS control or 0.5 mg/kg bortezomib (BTZ) in NSG mice. (n=10 tumors per group for 786-O, and n=16 tumors for NCC432 PBS EV group and 12 tumors for NCC432 PBS PBRM1 group and 14 tumors for both NCC432 EV and PBRM1 BTZ groups). Data are presented as mean values+/−SEM. k) Model for the study.
(§2) In 6 wells, 1,000 786-O cells or 2,500 NCC432 cells were seeded and treated with DMSO control or increasing concentration of drugs for 7 days and stained with crystal violet. For drug screening, we used SGC epigenetic probe collection. For RNA-seq with bortezomib treatment, 2×10^5 786-O cells were treated with DMSO or 0.005 μM bortezomib and harvested 9 hours after treatment for RNA extraction. For RT-qPCR with SMARCA2/4 ATPase inhibitor treatment, 1×10^5 786-O cells were treated with DMSO or 0.01 μM SMARCA2/4 ATPase inhibitor (Targetmol, T10616, CAS: 2270879-17-7) for 3 days before RNA extraction.
Total RNA was extracted using the Qiagen RNeasy Mini kit. RNA-seq libraries were prepared using Illumina Tru-Seq Stranded Total RNA kit protocol, according to the manufacturer's instructions (Illumina, San Diego, California, USA). […] Sequencing was performed on an Illumina HiSeq4000 sequencer with the paired-end 150 bp read option.
RNA-Seq Pathway Analysis RNA-seq data were mapped to hg19 (h117d5) using STAR, with GENCODE annotation (gencode.v19.annotation.gtf) and recommended settings from STAR manual. Gene expression levels were quantified with STAR. […]

[2] = system: NCC432 cells; assay: Colony formation, NCC432 isogenic cells; format: cell-based, human; conditions: NCC432, a week
Method: as §1
as §2, with “For RT-qPCR with SMARCA2/4 ATPase inhibitor treatment, 1×10^5 786-O cells were treated with DMSO or 0.01 μM SMARCA2/4 ATPase inhibitor (Targetmol, T10616, CAS: 2270879-17-7) for 3 days before RNA extraction.” left out

[3] = system: NCC432 tumors; assay: Tumor formation and survival of NSG mice bearing NCC432 isogenic cells; format: in vivo
Method: as §1
(§3) Data are presented as median+/−25%. Lower whisker is smallest observation greater than or equal to 25% quantile-1.5*interquantile range (IQR). Upper whisker represents the largest observation less than or equal to 75%+1.5*IQR. Amount of normalized RELA protein in the c) input or d) co-immunoprecipitated with SMARCA4 from 3 independent runs. Data are presented as mean values+/−SD. e) Tornado plots of RELA and SMARCA4 ChIP-seq signals in parental 786-0 or PBRM1-KO 786-O cells treated with DMSO or 0.005 μM bortezomib for 9 hours. f) Kaplan-Meier curves of NSG mice bearing 786-O isogenic cells treated with PBRM1 control or 0.5 mg/kg bortezomib (WT: n=10 PBS arm, median survival=39 days; n=10 bortezomib arm, median survival=52 days, HR=4.1, p=3E-6, log rank test; KO: n=10 PBS arm, median survival=35 days, n=10 bortezomib arm, median survival=66 days, HR=4.1, p=3E-6, log rank test). g) Kaplan-Meier curves of NSG mice bearing NCC432 isogenic cells treated with PBRM1 control or 0.5 mg/kg bortezomib (EV: n=16 PBS arm, median survival=42 days; n=14 bortezomib arm, median survival=49 days, HR=2.5, p=0.0009, log rank test; PBRM1: n=12 PBS arm, median survival=55 days; n=14 bortezomib arm, median survival=58 days, HR=1.2, p=0.5, log rank test). h) 786-O PBRM1 WT or KO cells were screened against the high-specific SGC epigenetic probe collection and cell viability was measured by colony formation after 1 week of treatment relative to DMSO control.
(§4) All animal studies were conducted in compliance with animal protocols approved by Institutional Animal Care and Use Committee (IACUC) of Singapore. Female NOD/SCID mice (8-10 week old) were implanted subcutaneously with 1×10^6 786-0 cells with either wildtype PBRM1 or PBRM1 knocked out subcutaneously. Male NSG mice (The Jackson laboratory) were implanted with 1×10^6 A498, NCC2112 or NCC432 with or without PBRM1. Tumor volume was monitored every 3-4 days. Tumor volume was calculated as (length×width×width)×π/6. Animals were sacrificed when the tumor volume exceeded 2000 mm^3.
(§5) Bortezomib […] was given twice weekly (day1, day 4) to male NSG mice (The Jackson laboratory) via the tail vein. Tumor volume and body weight were monitored every 3-4 days.

[4] = system: IκBα / NF-κB; conditions: mechanism; cited from earlier work
[5] = system: SMARCA4 and RELA interaction; assay: Co-immunoprecipitation of RELA with SMARCA4 after bortezomib; format: cell-based, human; conditions: bortezomib treatment
Description: Data are presented as median+/−25%. Lower whisker is smallest observation greater than or equal to 25% quantile-1.5*interquantile range (IQR). Upper whisker represents the largest observation less than or equal to 75%+1.5*IQR. Amount of normalized RELA protein in the c) input or d) co-immunoprecipitated with SMARCA4 from 3 independent runs. […]

[6] = system: metastatic RCC; conditions: monotherapy, cited from earlier work
[7] = system: 786-O tumors; assay: Tumor formation and survival of NSG mice bearing 786-O isogenic cells; format: in vivo; conditions: for median survival: 0.5 mg/kg bortezomib arm n=10; for HR: bortezomib vs PBS, p=3E-6, log rank test
Method: as §1, §3, §4, §5

[8] = phase II trial of 37 patients with metastatic RCC

CC(C)C[C@H](NC(=O)[C@H](Cc1ccccc1)NC(=O)c1cnccn1)B(O)O [bortezomib]
effect on NF-κB pathway by global transcriptomics ([1]; 0.005 μM bortezomib, 9 hours, RNA-seq): downregulation of the NF-κB pathway | effect on NF-κB activation (summary) ([1]; Example 2 summary): reverses NF-κB activation | additional targets upregulated by PB1 loss that were suppressed ([1]; in addition to RELA targets, 786-O): 127 targets | reduction of colony formation, PB1-deficient vs PB1-proficient isogenic cells [2]: preferential reduction of colony formation | survival, mice bearing PB1-deficient vs PB1-proficient cells ([3]; 0.5 mg/kg bortezomib): survived for a longer duration | tumor response, PB1-deficient vs PB1-proficient isogenic cells ([3]; 0.5 mg/kg bortezomib, NSG mice): responded better | median survival ([3]; NCC432 EV, 0.5 mg/kg bortezomib arm n=14, PBS arm 42 days): 49 days | HR ([3]; NCC432 EV, bortezomib vs PBS, p=0.0009, log rank test): 2.5 | median survival ([3]; NCC432 PBRM1, 0.5 mg/kg bortezomib arm n=14, PBS arm 55 days): 58 days | HR ([3]; NCC432 PBRM1, bortezomib vs PBS, p=0.5, log rank test): 1.2 | effect on IκBα and NF-κB DNA binding [4]: induces nuclear translocation and accumulation of IκBα which then associates with nuclear NF-κB and inhibits its DNA binding activity | effect on interaction between SMARCA4 and RELA [5]: did not significantly affect | ranking of RCC response amongst solid tumors ([6]; literature survey of 32 trials): most responsive tumor type amongst all solid tumors | partial response [6, 8]: 4 patients | stable disease [6, 8]: 14 patients | survival, mice bearing PB1-deficient vs PB1-proficient cells ([7]; 0.5 mg/kg bortezomib): survived for a longer duration | tumor response, PB1-deficient vs PB1-proficient isogenic cells ([7]; 0.5 mg/kg bortezomib, NSG mice): responded better | median survival ([7]; 786-O KO, PBS arm 35 days): 66 days | HR ([7]; 786-O KO): 4.1 | median survival ([7]; 786-O WT, PBS arm 39 days): 52 days | HR ([7]; 786-O WT): 4.1 | selectivity for PB1-deficient tumors (summary) ([7]; 786-O and NCC432, Example 2 summary): selectively targets PB1-deficient tumors
